Source: US20040132771A1, “Compositions of choleseteryl ester transfer protein inhibitors and HMG-CoA reductase inhibitors” (Pfizer Inc, priority 2002, published 2004)
Each block holds one molecule with its values, some of them ahead of it.

What was measured:
Format in all cases: physicochemical
[1] = aqueous solubility of torcetrapib
[2] = in vitro dissolution test using a syringe method (torcetrapib); details: for Torcetrapib Concentration / AUC: PBS pH 6.5, 2 wt % NaTC/POPC
Method: (§1) An 8.0 mg sample of the adsorbate was added to 40 mL phosphate buffered saline (PBS) at pH 6.5 and 290 mOsm/kg, containing 2 wt % sodium taurocholic acid and 1-palmitoyl-2-oleyl-sn-glycero-3-phosphocholine (NaTC/POPC, with a 4/1 weight ratio). The concentration of drug would have been 50 μg/mL, if all of the drug had dissolved. The test solution was stirred at room temperature in a syringe equipped with a Gelman Acrodisc 13 CR 0.45 μm PTFE filter. At each sample time, about 2 mL of the test solution was pushed through the filter and analyzed using UV at a wavelength of 256 nm to determine the concentration of torcetrapib in solution. Samples were collected at 1, 2, 3, 5, 10, 15, 20, 30, 45, 60, and 90 minutes. Crystalline torcetrapib alone is shown as a comparison.
The dissolution rate constant was obtained by performing a least squares fit of the experimental data using the following equation: […]
In this test, 7.855 mg of the Solid Amorphous Adsorbate 2 was added to 40 mL phosphate buffered saline (PBS) at pH 6.5 and 290 mOsm/kg, containing 2 wt % NaTC/POPC (the concentration of drug would have been 49 μg/mL, if all of the drug had dissolved).

[3] = in vitro dissolution test using a syringe method (Drug 2); details: for AUC / Drug 2 Concentration: PBS pH 6.5, 2 wt % NaTC/POPC
Method: as §1, with “Samples were collected at 1, 2, 3, 5, 10, 15, 20, 30, 45, 60, and 90 minutes.” left out
Crystalline Drug 2 alone is shown as a comparison. In all cases, a sufficient amount of sample was added so that the concentration of drug would have been 50 μg/mL, if all of the drug had dissolved.

solubility [1]: < 0.04 µg/mL
MDCmax,90 ([2]; maximum concentration of torcetrapib in solution during the first 90 minutes): <0.5 µg/mL
Torcetrapib Concentration ([2]; time 0 min): <0.5 µg/mL
Torcetrapib Concentration ([2]; time 1 min): <0.5 µg/mL
Torcetrapib Concentration ([2]; time 2 min): <0.5 µg/mL
Torcetrapib Concentration ([2]; time 3 min): <0.5 µg/mL
Torcetrapib Concentration ([2]; time 5 min): <0.5 µg/mL
Torcetrapib Concentration ([2]; time 10 min): <0.5 µg/mL
Torcetrapib Concentration ([2]; time 15 min): <0.5 µg/mL
Torcetrapib Concentration ([2]; time 20 min): <0.5 µg/mL
Torcetrapib Concentration ([2]; time 30 min): <0.5 µg/mL
Torcetrapib Concentration ([2]; time 45 min): <0.5 µg/mL
Torcetrapib Concentration ([2]; time 60 min): <0.5 µg/mL
Torcetrapib Concentration ([2]; time 90 min): <0.5 µg/mL
AUC90 ([2]; torcetrapib, area under the aqueous concentration versus time curve after 90 minutes): <45 min-μg/mL
Dissolution Rate Constant, k ([2]; torcetrapib, least squares fit of [D]t=[D]o(1−e^−kt)): <0.0005 min⁻¹
AUC ([2]; torcetrapib, time 0 min): 0 µg·min/mL
AUC ([2]; torcetrapib, time 1 min): 0 µg·min/mL
AUC ([2]; torcetrapib, time 2 min): <1 µg·min/mL
AUC ([2]; torcetrapib, time 3 min): <1 µg·min/mL
AUC ([2]; torcetrapib, time 5 min): <2 µg·min/mL
AUC ([2]; torcetrapib, time 10 min): <5 µg·min/mL
AUC ([2]; torcetrapib, time 15 min): <7 µg·min/mL
AUC ([2]; torcetrapib, time 20 min): <10 µg·min/mL
AUC ([2]; torcetrapib, time 30 min): <15 µg·min/mL
AUC ([2]; torcetrapib, time 45 min): <22 µg·min/mL
AUC ([2]; torcetrapib, time 60 min): <30 µg·min/mL
AUC ([2]; torcetrapib, time 90 min): <45 µg·min/mL
Compound: CCOC(=O)N1c2ccc(C(F)(F)F)cc2[C@@H](N(Cc2cc(C(F)(F)F)cc(C(F)(F)F)c2)C(=O)OC)C[C@H]1CC [torcetrapib, [2R,4S]-4-[(3,5-bis-trifluoromethyl-benzyl)-methoxycarbonyl-amino]-2-ethyl-6-trifluoromethyl-3,4-dihydro-2H-quinoline-1-carboxylic acid ethyl ester]

Dissolution Rate Constant, k ([3]; Drug 2): 0.005 min⁻¹
AUC90 ([3]; Drug 2, area under the aqueous concentration versus time curve after 90 minutes): 383 µg·min/mL
AUC ([3]; Drug 2, time 0 min): 0 µg·min/mL
AUC ([3]; Drug 2, time 0.5 min): 0 µg·min/mL
AUC ([3]; Drug 2, time 5 min): 2.6 µg·min/mL
AUC ([3]; Drug 2, time 15 min): 17 µg·min/mL
AUC ([3]; Drug 2, time 45 min): 111 µg·min/mL
AUC ([3]; Drug 2, time 90 min): 383 µg·min/mL
MDC90 ([3]; maximum concentration of Drug 2 in solution during the first 90 minutes): 7.6 µg/mL
Drug 2 Concentration ([3]; time 0 min): 0 µg/mL
Drug 2 Concentration ([3]; time 0.5 min): 0.1 µg/mL
Drug 2 Concentration ([3]; time 5 min): 1.0 µg/mL
Drug 2 Concentration ([3]; time 15 min): 1.8 µg/mL
Drug 2 Concentration ([3]; time 45 min): 4.5 µg/mL
Drug 2 Concentration ([3]; time 90 min): 7.6 µg/mL
Compound: CC[C@@H]1C[C@H](N(Cc2cc(C(F)(F)F)cc(C(F)(F)F)c2)C(=O)OC)c2cc(C(F)(F)F)ccc2N1C(=O)OC(C)C [Drug 2, [2R,4S]4-[(3,5-bis-trifluoromethyl-benzyl)-methoxycarbonyl-amino]-2-ethyl-6-trifluoromethyl-3,4-dihydro-2H-quinoline-1-carboxylic acid isopropyl ester]
